Data from patent publication US6642273B2, “Unsaturated derivatives at the 4-position of 6-tert-butyl-1,1-dimethylindane and their use in human and veterinary medicine and in cosmetics” (Galderma Research & Development, priority 1997, dated 2003).

Row | melting point [°C] | Compound
1 | 99 to 100 | C=C(c1ccsc1C=O)c1cc(C(C)(C)C)cc2c1CCC2(C)C [Example 9, 3-[1-(6-tert-Butyl-1,1-dimethylindan-4-yl)ethen-1-yl]-thiophene-2-carboxaldehyde]
2 | 146 to 148 | C=C(c1ccsc1C(=O)O)c1cc(C(C)(C)C)cc2c1CCC2(C)C [Example 10, 3-[1-(6-tert-Butyl-1,1-dimethylindan-4-yl)ethen-1-yl]-thiophene-2-carboxylic Acid]
3 | 148 to 150 | C=C(c1cc(C(C)(C)C)cc2c1CCC2(C)C)c1sccc1C=O [Example 11, 2-[1-(6-tert-Butyl-1,1-dimethylindan-4-yl)ethen-1-yl]-thiophene-3-carboxaldehyde]
4 | 148 to 150 | C=C(c1cc(C(C)(C)C)cc2c1CCC2(C)C)c1sccc1C(=O)O [Example 12, 2-[1-(6-tert-Butyl-1,1-dimethylindan-4-yl)ethen-1-yl]-thiophene-3-carboxylic Acid]
